According to US7632528B1, “Antimigraine combination comprising Sapindus and Emblica extracts” (Lupin Limited, priority 2000, dated 2009):
Where a name gives a salt, the structure may show the parent alone.

Legend:
migraine attacks = settings: cited from earlier work
patients having migraine = experiment: Multi-centric double blind clinical studies (placebo, flunarizine, internal crossover); type: in vivo, human
Source text: The objective of this study was to evaluate the efficacy and tolerability of the formulation as a prophylactic monotherapy in comparison with a placebo in patients having migraine. Patients were included in the study based on the following criteria: those aged between 15–60 years, diagnosed as having migraine as per International Headache Society Classification (IHSC) guidelines; those with at least two or more attacks of acute migraine per month for at least 6 months; women of child bearing age who take contraceptive measures during the study and those taking no other prophylactic therapy during the study period or alteast one month prior to the study. A detailed ENT examination was conducted prior to the study to rule out any nasal pathology. A written consent was taken from each patient.
Patients with more than 8 attacks a month, unstable angina, hypertension, cardiac failure, severe left ventricular failure, atrophic rhinitis, nasal polyposis, patients taking any prophylactic medication within 1 month of the study, patients with psychiatric disorders, pregnant/nursing women, patients with glaucoma and Parkinson's disease were excluded from the study.
This study, a multi-centric, randomised placebo controlled double blind (test formulation versus matched saline placebo) was conducted at five centres. A non-randomised single blind (test formulation versus flunarizine) study was conducted at two of the five centres. An internal crossover study was done at three of the five centres by cross over of patients in the test formulation and placebo groups.
The duration of study was eight months. The period of treatment was three months. Patients later on were crossed over internally (test formulation and placebo) for further treatment of three months and a follow-up period of two months. One drop of the test formulation was administered into each nostril two times a day, once in the morning and once in the evening. One drop of placebo was administrated into each nostril, once in the morning and once in the evening. flurnarizine tablet (10 mg) was administered once a day orally.
The enrolled patients underwent a general examination, E.N.T. examination and laboratory tests. Each patient was given a diary to record the details of the migraine, episodes, any adverse events(pre- and post-treatment) as well as details of rescue modification taken, if any. The same was also recorded by the investigator.
Patients were instructed on how to record the details of various visual symptoms, nausea, vomiting and headache (viz. time of onset, relief, and any additional treatment) and grade them according to severity (4 point scale) in diary. The recorded observations in the diary were reviewed every month of the study period.
The efficacy of the prophylactic treatment was evaluated on the following basis: • At least 50% reduction in the intensity or duration of migraine attacks (mean duration of migraine in hours) per month at the end of 12 weeks of treatment, compared to baseline. • Reduction in the frequency of attack per month using test formulation and flunarizine compared to placebo (>or =50%). • Consumption of drugs for symptomatic relief of breakthrough attacks in the three groups. • At least 50% or more reduction of attack in patients who respond to test formulation compared to the reduction of attack in patients given placebo. • The safety and patient compliance of test formulation was assessed on the basis of incidence and severity of side effects in each groups compared to placebo and number of drop outs in each group compared to placebo. Results
The results of the trial was statistically analysed based on the following parameters:
• 1. Atleast 50% reduction in the frequency of migraine attacks • 2. Atleast 50% reduction in the duration of migraine attacks • 3. Reduction in the severity of migraine attacks [graded as none (0), mild (1), moderate (2) and severe (3) • 4. […]

[1] = Colouration of the formulation on storage; type: physicochemical; settings: 3 months
Source text: To prevent any colouration during storage of the formulation it is preferable to add an anti-oxidant to prevent the colouration. Sodium metabisulfite is preferably used. When this anti-oxidant is not added the colour of the solution changes from initial colourless to straw yellow to dark yellow in one month's time and to dark brown in three months. Addition of sodium bisulfite arrests the change in colouration. This can be used in a concentration ranging from 0.020% to 0.080% wt/vol of the composition. A range of 0.04 to 0.05% being the most preferred
Tabulation of the colour change as a function of the concentration of the sodium meta bisulfite concentration is given below in Table-III.
The importance of purging the entire system with nitrogen reflects in the colouration to the product. When no nitrogen is bubbled in to the system the colour of the formulation changes to yellow within 3 months, indicating degradation. In batches where the system is constantly kept under nitrogen atmosphere, no change in colouration is observed even after 3 months.

nasal mucosa = experiment: Nasal mucosal irritation as a function of additives in the formulation; type: in vivo; settings: used as the preservative of the aqueous formulation
[2] = end of third follow-up, comparison with flunarizine

Compound: CN1C[C@H](C(=O)N[C@]2(C)O[C@@]3(O)[C@@H]4CCCN4C(=O)[C@H](Cc4ccccc4)N3C2=O)C=C2c3cccc4[nH]cc(c34)C[C@H]21 [Ergotamine, Ergotamine tartrate]
- incidence of side effects (migraine attacks; over that observed on use of NSAIDs): 17–41%

Compound: Fc1ccc(C(c2ccc(F)cc2)N2CCN(C/C=C/c3ccccc3)CC2)cc1 [Flunarizine, flunarizine]
- DROP OUT RATE (%) (patients having migraine; 3 months treatment): 43%
- Reduction in mean frequency of attacks (patients having migraine; at each follow-up): significant difference reduction in the mean frequency of attacks at the end each follow up
- Reduction in the duration of attacks (patients having migraine; at the follow-ups): significant reduction in the duration of attacks only at the end of the second and third follow-up
- Patients with ≧50% REDUCTION IN DURATION (patients having migraine; end of third follow up, comparison with flunarizine): 52.0%
- Patients with ≧50% REDUCTION IN DISABILITY (patients having migraine; [2]): 69.6%
- Patients with ≧50% REDUCTION IN SEVERITY (patients having migraine; [2]): 42.3%
- Patients with ≧50% REDUCTION IN FREQUENCY (patients having migraine; third follow up, comparison with flunarizine): 81.5%

Compound: O=S([O-])S(=O)(=O)[O-].[Na+].[Na+] [Sodium meta bisulfite]
- Change in colour ([1]; sodium meta bisulfite 0.020 % w/v): Colourless→light brown (3 months)
- Change in colour ([1]; sodium meta bisulfite 0.040 % w/v): Colourless→light Yellow (3 months)
- Change in colour ([1]; sodium meta bisulfite 0.050 % w/v): Colourless→very light Yellow (3 months)
- Change in colour ([1]; sodium meta bisulfite 0.075 % w/v): Remains Colourless (3 months)
- Change in colour ([1]; sodium meta bisulfite 0.080 % w/v): Remains Colourless (3 months)

Compound: CNS(=O)(=O)Cc1ccc2[nH]cc(CCN(C)C)c2c1 [Sumatriptan, sumatriptan]
- relief to migraine attacks (migraine attacks; in one hour, placebo less than 27%): 70%

Compound: benzalkonium chloride
- Mucosal irritation (nasal mucosa): causes mucosal irritation
